From patent EP3046573B1, “AMYLIN ANALOGUES” (Zealand Pharma A/S, priority 2013, dated 2015)
Read-outs that look alike come from different tables or passages of the source. Numbered stars: 1 amine (or outer) side, 2 acyl side, 3 side chain; on linkers, the order of the positions; unused ones are H or OH. Bridge positions count the residues as written; N and C are the ends. Square brackets hold non-standard residues; d marks the D form. Peptide text beside a SMILES is read from it. * marks the point of attachment. C20 diacid = O=C(O)CCCCCCCCCCCCCCCCCCC(=O)*; γGlu = O=C(O)[C@H](CCC(=O)[*:2])N[*:1]; NMeI = CC[C@H](C)[C@H](NC)C(=O)O; Sar = CNCC(=O)O

Target: T1, human calcitonin receptor (hCTR2) (Homo sapiens, UniProt P30988)
T1 construct: expressed in transfected cells
T1 sequence (P30988 25-474): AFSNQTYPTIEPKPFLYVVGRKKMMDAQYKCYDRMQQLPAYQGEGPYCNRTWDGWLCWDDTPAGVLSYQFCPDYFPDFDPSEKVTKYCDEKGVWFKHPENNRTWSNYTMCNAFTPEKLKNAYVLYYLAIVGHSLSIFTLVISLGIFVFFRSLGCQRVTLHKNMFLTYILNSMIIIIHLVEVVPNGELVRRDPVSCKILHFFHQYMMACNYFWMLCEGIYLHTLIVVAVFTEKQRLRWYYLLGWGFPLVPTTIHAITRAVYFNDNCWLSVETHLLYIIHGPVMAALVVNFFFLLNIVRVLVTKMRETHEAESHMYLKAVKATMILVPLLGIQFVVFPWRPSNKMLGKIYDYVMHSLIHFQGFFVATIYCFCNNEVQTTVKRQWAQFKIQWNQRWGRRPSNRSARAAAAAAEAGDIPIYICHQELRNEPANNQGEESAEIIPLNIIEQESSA
Assay: hCTR2 assay: induction of cAMP (AlphaScreen cAMP Assay kit) in COS7 cells expressing hCTR2
Format: cell-based
Description: The cell line COS7, originating from African Green Monkey kidney fibroblast cells, was used for establishment of the stable cell lines described below. The COS7 cellular background was used due to it being RAMP naive, and as such it provides the best available system for testing of the monomeric hCTR and different heterodimeric amylin receptor subtypes functionally generated by introduction of the individual RAMPs.
A cell line expressing the human calcitonin receptor (hCTR2) was generated in the COS7 cellular background as stable clones. In brief, hCTR2 (GI: 4502547) was amplified by PCR using primers encoding terminal restriction sites for subcloning. The 5'-end primers additionally encoded a near Kozak consensus sequence to ensure efficient translation. The fidelity of the DNA encoding the receptor was confirmed by DNA sequencing. The PCR products encoding the receptor were subcloned into a mammalian expression vector containing a neomycin (G418) resistance marker. The mammalian expression vector encoding the receptor was transfected into COS7 cells by a standard liposome transfection method. 48 hours post-transfection, cells were seeded for limited dilution cloning and selected with 1 mg/ml G418 in the culture medium. After 3 weeks, surviving colonies of hCTR2-expressing cells were picked, propagated and tested in the amylin efficacy assay as described in Example 3 below. One hCTR2-expressing clone was chosen for compound profiling.
In vitro activity of test peptides at the hCTR2 and hAMYR3 receptors was assessed by measuring the induction of cAMP following stimulation of the receptor by pramlintide or peptides of the invention using the AlphaScreen® cAMP Assay kit from Perkin-Elmer.
Briefly, COS7 cells expressing hCTR2 (see Example 2, above) were seeded at 30-40,000 cells per well in 96-well microtiter plates coated with 0.01 % poly-L-lysine, and grown for 1 day in culture in 100 µl growth medium [DMEM, 10% FCS, Penicillin (100 IU/ml), Streptomycin (100 µg/ml)]. On the day of analysis, growth medium was removed and the cells were washed once with 200 µl Tyrode buffer [Tyrode's Salts (9.6 g/l), 10 mM HEPES, pH 7.4]. Cells were incubated in 100 µl Tyrode buffer containing increasing concentrations of test peptides, 100 µM IBMX and 0.1% casein for 15 min at 37° C. The reaction was stopped by carefully decanting off the compound/buffer medium and replacing it with lysis/detection buffer (80 µl 0.1 % w/v BSA, 5 mM HEPES, 0.3 % v/v Tween-20 in deionized water). After incubation at room temperature for 10 min., the cAMP content of the resulting cell lysate was estimated according to the AlphaScreen® cAMP Assay manufacturer's instructions. EC50 values and relative efficacy values (in %) compared to reference peptide (Pramlintide) were estimated by computer-aided curve fitting using the 4-parameter logistic (4PL) non-linear model.
The in vitro activity results (expressed as EC50 values) for peptides of the invention and for Pramlintide (reference peptide) are summarized in Table 2, below.

[1] = cAMP induction in COS7 cells expressing hCTR2, average of a minimum of 3 determinations, read-out: hCTR2 EC50

| EC50 [1] [nM] | SMILES | EC50 [nM] |
| --- | --- | --- |
| 0.093 | CC[C@H](C)[C@@H](C(=O)N[C@@H](CC(C)C)C(=O)N[C@@H](CO)C(=O)N[C@@H](CO)C(=O)N[C@H](C(=O)N[C@@H](CC(N)=O)C(=O)N[C@H](C(=O)NCC(=O)N[C@@H](CO)C(=O)N[C@@H](CC(N)=O)C(=O)N[C@H](C(=O)N1CCC[C@H]1C(N)=O)[C@@H](C)O)C(C)C)[C@@H](C)O)N(C)C(=O)[C@H](C)NC(=O)[C@@H](C)NC(=O)[C@H](Cc1ccccc1)NC(=O)[C@H](CC(N)=O)NC(=O)[C@H](CC(N)=O)NC(=O)[C@H](CO)NC(=O)[C@H](CO)NC(=O)[C@H](Cc1c[nH]cn1)NC(=O)[C@H](Cc1c[nH]cn1)NC(=O)[C@H](CC(C)C)NC(=O)[C@H](Cc1ccccc1)NC(=O)[C@H](CCC(=O)O)NC(=O)[C@H](C)NC(=O)[C@H](CC(C)C)NC(=O)[C@H](CCCNC(=N)N)NC(=O)[C@H](CCC(N)=O)NC(=O)[C@@H](NC(=O)[C@H](C)NC(=O)[C@@H]1CSSC[C@H](NC(=O)[C@H](CCCNC(=N)N)NC(=O)CC[C@H](NC(=O)CCCCCCCCCCCCCCCCCCC(=O)O)C(=O)O)C(=O)N[C@@H](CC(N)=O)C(=O)N[C@@H]([C@@H](C)O)C(=O)N[C@@H](C)C(=O)N[C@@H]([C@@H](C)O)C(=O)N1)[C@@H](C)O [Compound 17, [19CD]-isoGlu-RC()NTATC()ATQRLAEFLHHSSNNF-DAla-A-Ile(Me)-LSSTNVGSNTP-NH2] ({C20 diacid-γGlu}-RCNTATCATQRLAEFLHHSSNNF[dA]A[NMeI]LSSTNVGSNTP-NH2; disulfide 2-7) |  |
|  | CC[C@H](C)[C@@H](C(=O)N[C@@H](CC(C)C)C(=O)N[C@H](CO)C(=O)N[C@@H](CO)C(=O)N[C@H](C(=O)N[C@@H](CC(N)=O)C(=O)N[C@H](C(=O)NCC(=O)N[C@@H](CO)C(=O)N[C@@H](CC(N)=O)C(=O)N[C@H](C(=O)N1CCC[C@H]1C(N)=O)[C@@H](C)O)C(C)C)[C@@H](C)O)N(C)C(=O)[C@H](C)NC(=O)CN(C)C(=O)[C@H](Cc1ccccc1)NC(=O)[C@H](CC(N)=O)NC(=O)[C@H](CC(N)=O)NC(=O)[C@H](CO)NC(=O)[C@H](CO)NC(=O)[C@H](Cc1c[nH]cn1)NC(=O)[C@H](Cc1c[nH]cn1)NC(=O)[C@H](CC(C)C)NC(=O)[C@H](Cc1ccccc1)NC(=O)[C@H](CCC(=O)O)NC(=O)[C@H](C)NC(=O)[C@H](CC(C)C)NC(=O)[C@H](CCCNC(=N)N)NC(=O)[C@H](CCC(N)=O)NC(=O)[C@@H](NC(=O)[C@H](C)NC(=O)[C@@H]1CSSC[C@H](NC(=O)[C@H](CCCNC(=N)N)NC(=O)CC[C@H](NC(=O)CCCCCCCCCCCCCCCCCCC(=O)O)C(=O)O)C(=O)N[C@@H](CC(N)=O)C(=O)N[C@@H]([C@@H](C)O)C(=O)N[C@@H](C)C(=O)N[C@@H]([C@@H](C)O)C(=O)N1)[C@@H](C)O [Compound 23, [19CD]-isoGlu-RC()NTATC()ATQRLAEFLHHSSNNF-Gly(Me)-A-Ile(Me)-L-DSer-STNVGSNTP-NH2] ({C20 diacid-γGlu}-RCNTATCATQRLAEFLHHSSNNF[Sar]A[NMeI]L[dS]STNVGSNTP-NH2; disulfide 2-7) | 0.074 |
| 0.14 | CC(C)C[C@H](NC(=O)[C@H](C)NC(=O)CN(C)C(=O)[C@H](Cc1ccccc1)NC(=O)[C@H](CC(N)=O)NC(=O)[C@H](CC(N)=O)NC(=O)[C@H](CO)NC(=O)[C@H](CO)NC(=O)[C@H](Cc1c[nH]cn1)NC(=O)[C@H](Cc1c[nH]cn1)NC(=O)[C@H](CC(C)C)NC(=O)[C@H](Cc1ccccc1)NC(=O)[C@H](CCC(=O)O)NC(=O)[C@H](C)NC(=O)[C@H](CC(C)C)NC(=O)[C@H](CCCNC(=N)N)NC(=O)[C@H](CCC(N)=O)NC(=O)[C@@H](NC(=O)[C@H](C)NC(=O)[C@@H]1CSSC[C@H](NC(=O)[C@H](CCCNC(=N)N)NC(=O)CC[C@H](NC(=O)CCCCCCCCCCCCCCCCCCC(=O)O)C(=O)O)C(=O)N[C@@H](CC(N)=O)C(=O)N[C@@H]([C@@H](C)O)C(=O)N[C@@H](C)C(=O)N[C@@H]([C@@H](C)O)C(=O)N1)[C@@H](C)O)C(=O)N[C@@H](CO)C(=O)N[C@@H](CO)C(=O)N[C@H](C(=O)N[C@@H](CC(N)=O)C(=O)N[C@H](C(=O)NCC(=O)N[C@@H](CO)C(=O)N[C@@H](CC(N)=O)C(=O)N[C@H](C(=O)N1CCC[C@H]1C(N)=O)[C@@H](C)O)C(C)C)[C@@H](C)O [Compound 27, [19CD]-isoGlu-RC()NTATC()ATQRLAEFLHHSSNNF-Gly(Me)-ALSSTNVGSNTP-NH2] ({C20 diacid-γGlu}-RCNTATCATQRLAEFLHHSSNNF[Sar]ALSSTNVGSNTP-NH2; disulfide 2-7) |  |
| 0.56 | CC[C@H](C)[C@@H](C(=O)N[C@@H](CC(C)C)C(=O)N[C@@H](CO)C(=O)N[C@@H](CO)C(=O)N[C@H](C(=O)N[C@@H](CC(N)=O)C(=O)N[C@H](C(=O)NCC(=O)N[C@@H](CO)C(=O)N[C@@H](CC(N)=O)C(=O)N[C@H](C(=O)N1CCC[C@H]1C(N)=O)[C@@H](C)O)C(C)C)[C@@H](C)O)N(C)C(=O)CN(C)C(=O)[C@H](Cc1ccccc1)NC(=O)[C@H](CC(N)=O)NC(=O)[C@H](CC(N)=O)NC(=O)[C@H](CO)NC(=O)[C@@H](CO)NC(=O)[C@H](Cc1c[nH]cn1)NC(=O)[C@H](Cc1c[nH]cn1)NC(=O)[C@H](CC(C)C)NC(=O)[C@H](Cc1ccccc1)NC(=O)[C@H](CCC(=O)O)NC(=O)[C@H](C)NC(=O)[C@H](CC(C)C)NC(=O)[C@H](CCCNC(=N)N)NC(=O)[C@H](CCC(N)=O)NC(=O)[C@@H](NC(=O)[C@H](C)NC(=O)[C@@H]1CSSC[C@H](NC(=O)[C@H](CCCNC(=N)N)NC(=O)CC[C@H](NC(=O)CCCCCCCCCCCCCCCCCCC(=O)O)C(=O)O)C(=O)N[C@@H](CC(N)=O)C(=O)N[C@@H]([C@@H](C)O)C(=O)N[C@@H](C)C(=O)N[C@@H]([C@@H](C)O)C(=O)N1)[C@@H](C)O [Compound 30, [19CD]-isoGlu-RC()NTATC()ATQRLAEFLHH-DSer-SNNF-Gly(Me)-Ile(Me)-LSSTNVGSNTP-NH2] ({C20 diacid-γGlu}-RCNTATCATQRLAEFLHH[dS]SNNF[Sar][NMeI]LSSTNVGSNTP-NH2; disulfide 2-7) |  |
| 0.26 | CC[C@H](C)[C@@H](C(=O)N[C@@H](CC(C)C)C(=O)N[C@@H](CO)C(=O)N[C@@H](CO)C(=O)N[C@H](C(=O)N[C@@H](CC(N)=O)C(=O)N[C@H](C(=O)NCC(=O)N[C@@H](CO)C(=O)N[C@@H](CC(N)=O)C(=O)N[C@H](C(=O)N1CCC[C@H]1C(N)=O)[C@@H](C)O)C(C)C)[C@@H](C)O)N(C)C(=O)CN(C)C(=O)[C@H](Cc1ccccc1)NC(=O)[C@H](CC(N)=O)NC(=O)[C@H](CC(N)=O)NC(=O)[C@@H](CO)NC(=O)[C@H](CO)NC(=O)[C@H](Cc1c[nH]cn1)NC(=O)[C@H](Cc1c[nH]cn1)NC(=O)[C@H](CC(C)C)NC(=O)[C@H](Cc1ccccc1)NC(=O)[C@H](CCC(=O)O)NC(=O)[C@H](C)NC(=O)[C@H](CC(C)C)NC(=O)[C@H](CCCNC(=N)N)NC(=O)[C@H](CCC(N)=O)NC(=O)[C@@H](NC(=O)[C@H](C)NC(=O)[C@@H]1CSSC[C@H](NC(=O)[C@H](CCCNC(=N)N)NC(=O)CC[C@H](NC(=O)CCCCCCCCCCCCCCCCCCC(=O)O)C(=O)O)C(=O)N[C@@H](CC(N)=O)C(=O)N[C@@H]([C@@H](C)O)C(=O)N[C@@H](C)C(=O)N[C@@H]([C@@H](C)O)C(=O)N1)[C@@H](C)O [Compound 34, [19CD]-isoGlu-RC()NTATC()ATQRLAEFLHHS-DSer-NNF-Gly(Me)-Ile(Me)-LSSTNVGSNTP-NH2] ({C20 diacid-γGlu}-RCNTATCATQRLAEFLHHS[dS]NNF[Sar][NMeI]LSSTNVGSNTP-NH2; disulfide 2-7) |  |
